Assay results: patent publication EP1176134A1, “LIGANDS OF NUCLEAR RECEPTORS PPAR'S” (Nuclear Receptor Research Limited, priority 1999, dated 2000)

How the values were obtained:
rat hypertension model = experiment: prevention of aneurysms in DOCA/saline one-kidney rat hypertension model; type: in vivo, male Wistar rats
Experimental: Compounds of the present invention show the effect of preventing periarteritis nodosa and aneurysms. In order to evaluate the effect of preventing aneurysms, a quantitatively assayable rat hypertension model was used so that aneurysms formed in mesenteric arteries were measured and statistically processed to determine the effect. The membrane was removed with forceps from isolated mesenterium and the remaining arterioles were fixed with formalin and then fat-stained. The number of arterioles and the number of aneurysms were counted in triplicate to calculate the average number of aneurysms per arteriole. As a hypertension model, rats with one kidney extracted to decrease renal function were given 0.9% saline as drinking water having a slightly higher osmosis than plasma and subcutaneously received 10 mg/kg of a mineral corticoid deoxycorticosteron acetate (DOCA) weekly. The left kidney was extracted from male Wistar rats (12 animals) under anesthetization. The rats deprived of kidney were randomly divided into two groups (n = 6) after a period of recovery for a week. One of the two groups was a control group and the other received compound 1. […] The experimental period was 7 weeks, during which feed intake, drinking water intake, urine volume, body weight and blood pressure were measured every 3 days from the start of experiments. […]

DOCA hypertension rats = settings: orally administered to DOCA hypertension rats; cited from earlier work
serum lipid = settings: cited from earlier work
PPARγ = experiment: transfer (reporter) gene activity assay in transfected COS-1 cells, PPARγ; type: cell-based; settings: luciferase reporter, 20 hours
Experimental: Transfection was performed by a standard procedure using a LipofectAMINE reagent from Life Technologies. A 35 mm Petri dish containing 1 x 10^5 cells dispersed in 2 ml of Dulbecco's minimum medium (DMEM) containing 10% fetal bovine serum was incubated in a CO2 incubator for 17 hours. Then, the medium was removed and cells adhered to the Petri dish were washed with phosphate buffered physiological saline (PBS), after which transfection was performed using a LipofectAMINE reagent. That is, […] of a minimum serum medium OptiMEM (Life Technologies) containing […] of a plasmid bearing the luciferase gene whose expression is controlled by PPAR-responsive elements, […] of a PPAR expression plasmid and 2 mg of a plasmid bearing the β-galactosidase gene for monitoring transfection efficiency was preliminarily mixed with […] of OptiMEM containing 50 ml of LipofectAMINE dissolved therein, and the mixed solution was maintained at room temperature for 15 minutes. A Petri dish containing a mixture of 100 ml of this mixed solution and 400 ml of OptiMEM was incubated in a CO2 incubator at 37°C for 3 hours. The transfection medium was aspirated off from the Petri dish, which was supplied with DMEM containing 10% serum treated with activated carbon and a test compound and incubated at 37°C for 20 hours. […] The medium also contains a solvent for test compounds dimethyl sulfoxide (final concentration 0.1%).
(§1) After the medium in the Petri dish was aspirated off, […] of a lysing solution for cultured cells (25 mM Tris phosphate buffer (pH 7.8), 2 mM 1,2-diaminocyclo-hexane-N, N,N',N'-tetraacetate, 10% glycerol, 1% Triton X-100) was added and cells were scraped with rubber policeman. Cells were completely disrupted by freezing and thawing and then centrifuged at 4°C (15,000 rpm, 2 min), and the supernatants were used as test samples. […] The β-galactosidase for monitoring transfection efficiency was measured for fluorescence in a luminometer using Luminescent β-galactosidase detection kit II (Clontech). […]

[1] = test system: Ehrlich ascites tumor cells; experiment: hyperlipidemia (cachexia marker) in Ehrlich ascites tumor bearing mice; type: in vivo, male ddY-strain mice; settings: for Body weight / Serum neutral Serum neutral fat: day 8, mean±SD, n=8
Excerpt: In these experiments, serum neutral fat was selected as an indication of cachexia to serve as an auxiliary marker for knowing dynamics of TNFα that is difficult to quantitize, because it is difficult to exactly measure blood TNFα and it is easier to measure serum neutral fat than blood TNFα. Forty male ddY-strain mice at 5 weeks of age were randomly divided into 5 groups (n = 8), among which 4 groups were intraperitoneally implanted with 2 x 10^6 Ehrlich ascites tumor cells. The group implanted with no tumor cells was a healthy control group. From 24 hours after implantation of tumor cells, 3 groups intraperitoneally received 100-400 mg/kg of compound 1, while the other group received a solvent 0.1% Tween 80 (0.2 ml) alone free from compound 1. On day 8 after implantation of tumor cells, blood was collected from the heart of tumor bearing mice to assay neutral fat in separated serum and detect blood TNFα by immunoelectrophoresis.

NOD mice = experiment: prevention of onset of type I diabetes in NOD mice; type: in vivo, female NOD mice; settings: 10 animals
Experimental: (§2) Each group consists of 10 animals.
The mice were bred for 24 weeks, during which they were tested for urinary sugar excretion using an urinary sugar detection tape on Monday and Friday (Fig. 3).

[2] = test system: streptozotocin-induced diabetes; experiment: streptozotocin-induced diabetes in rats; type: in vivo, male Wistar rats; settings: 100 mg/kg orally once daily; for Body weight / Drinking water intake / Feed intake / Urinary sugar excretion / Urine volume: n=8
Experimental: Streptozotocin (50 mg/kg) was injected into the tail vein of male Wistar rats weighing about 250 g to prepare an insulin deficiency diabetes model. Compound 1 suspended in a gum arabic solution was orally administered at 100 mg/kg once daily, starting immediately after administration of streptozotocin. The animals were housed in a urine-collecting cage for 24 hours on days 7 and 14 to collect urine for 24 hours. […] However, weight gain was 80 g/week in the healthy group in contrast with only 18 g/week in the diabetes control group. […] This means that administration of compound 1 improved metabolism to greatly reduce urinary sugar excretion.

[3] = test system: hereditary obese and diabetic mice C57BL/ksj db/db; experiment: polydipsia/polyuria and urinary sugar excretion in db/db mice fed compound in diet; type: in vivo
Experimental: Ten male db/db mice at 30-32 weeks of age were randomly divided into two groups (n = 5), ie, a control group and compound 17 group. The animals were allowed free access to diet and drinking water. The diet was mouse II rat standard food CE-2 powder from Clea Japan, which was pelletized after a solution of compound 17 in acetone was applied and acetone was evaporated by air-drying. Compound 17 was added in an amount of 0.1% of the diet. A control diet was also pelletized after the same amount of acetone was applied.
Both groups received the control diet for first 7 days to test feed intake, urine volume, urinary sugar level and urinary sugar excretion level. During the following 5 days, the treatment group received the diet containing 0.1% compound 17. The treatment group was bred with the control diet again for further 4 days and then bred with the diet containing 0.1% compound 17 again for 5 days on […]. As db/db mice individually bred in metabolic cages show wide variation in feed and drinking water intakes, 5 animals were housed in a rat metabolic cage and the values obtained in each cage were divided by 5 and shown in Fig. 1. […] Urinary sugar excretion level is 50% or less as compared with the control period even 24 hours after administration is stopped, showing that compound 17 has a carry-over effect.

db/db mice = experiment: blood glucose and urinary sugar excretion in db/db mice; type: in vivo; settings: 60 mg/kg orally once daily, Fig. 2
Experimental: Blood was collected from the tail vein of ten db/db mice at 12 weeks of age 2 days before the start of experiments, and the animals were divided into two groups each having an average blood glucose level of 720-740 mg/dl. One group was a control group, while the other group orally received compound 25 at 60 mg/kg once daily. […] SA solid diamond denotes the control group, solid triangle denotes the: group treated with compound 1 at 25 mg/kg, open square denotes the: group treated with compound 1 at 50 mg/kg, and cross denotes the: group treated with compound 25 at 50 mg mg/kg. Each group consists of 10 animals.
Blood was collected from the tail vein of ten db/db mice at 12 weeks of age, and the animals were divided into two groups, ie, a control group and a compound 25 group, each having an average blood glucose level of about 700 mg/dl and housed in urine-collecting cages. A small amount of blood was collected from the tail vein on days 1, 2, 3, 5, 7 and 10 from the start of experiments to determine blood glucose. Urine was collected for 24 hours at the same intervals to determine urinary sugar excretion level by the oxygen method.

[4] = test system: immobilized PPARγ receptor; experiment: Surface Plasmon Resonance sensor (BIAcore) binding test; settings: BIAcore sensorgram, Fig. 4
Excerpt: as §2
A Surface Plasmon Resonance sensor (BIAcore column) was used to examine whether or not compounds of the present invention bind immobilized PPARγ receptor.

PPARα = experiment: transfer (reporter) gene activity assay in transfected COS-1 cells, PPARα; type: cell-based; settings: luciferase reporter, 20 hours
Experimental: Transfection was performed by a standard procedure using a LipofectAMINE reagent from Life Technologies. A 35 mm Petri dish containing 1 x 10^5 cells dispersed in 2 ml of Dulbecco's minimum medium (DMEM) containing 10% fetal bovine serum was incubated in a CO2 incubator for 17 hours. Then, the medium was removed and cells adhered to the Petri dish were washed with phosphate buffered physiological saline (PBS), after which transfection was performed using a LipofectAMINE reagent. […]
as §1, with “policeman.” for “policeman. Cells were completely disrupted by freezing and thawing and then centrifuged at 4°C (15,000 rpm, 2 min), and the supernatants were used as test samples.”

[5] = Dose 100 mg/kg intraperitoneally
[6] = Dose 200 mg/kg intraperitoneally
[7] = Dose 400 mg/kg intraperitoneally
[8] = groups treated with 100-400 mg/kg
[9] = 50 mg/kg intraperitoneally twice weekly
[10] = diet containing 0.1% compound, Fig. 1

C/C(=C\Cc1c(O)c(Cl)c(C)c(C=O)c1O)CC/C=C(\C)C1CC(=O)C(C)(C)O1 (centres unmarked) [Compound 1, Ascofuranone]
effect of suppressing pressure rise (blood pressure) (rat hypertension model; orally 100 mg/kg from week 3, compared with control group): any significant effect of suppressing pressure rise was not observed | aneurysms (mean ± SE) per mesenteric artery (rat hypertension model; orally 100 mg/kg from week 3, dissected at week 7, n = 6): 0.51 ± 0.37 aneurysms per mesenteric arter | indications of cardiovascular diseases (DOCA hypertension rats): improves indications of cardiovascular diseases | pressure rise (DOCA hypertension rats): does not suppress pressure rise | toxicity (serum lipid; orally administered to rodents): very low toxicity | effect on serum lipid (serum lipid; orally administered, rats bred with a standard diet or a high-fat diet): lowering serum lipid | Activation of receptors PPARγ (PPARγ): +++ (Activation peak appears at 10^-6-10^-5M.) | Body weight [1, 5]: 38.0±1.0 g/mouse | Serum neutral Serum neutral fat [1, 5]: 258.2 ± 53.2 mg/dL | Body weight [1, 6]: 36.7±0.7 g/mouse | Serum neutral Serum neutral fat [1, 6]: 185.1 ± 26.2 mg/dL | Body weight [1, 7]: 31.3±1.1 g/mouse | Serum neutral Serum neutral fat [1, 7]: 99.1 ± 18.3 mg/dL | blood TNFα [1, 8]: downward tendency | blood glucose level [1, 8]: significant increase | increase of serum neutral fat [1, 8]: dose-dependently suppressed | incidence of type I diabetes at week 24 (NOD mice; 25 mg/kg intraperitoneally twice weekly): 30% | incidence of type I diabetes at week 24 (NOD mice; [9]): 10% | weight gain [2]: 30 g/week | Body weight ([2]; Day 7): 307.7±4.8 g/rat | Drinking water intake ([2]; Day 7): 99.9±13.0 ml/rat/day | Feed intake ([2]; Day 7): 32.9±1.9 g/rat | Urinary sugar excretion ([2]; Day 7): 5.39±0.55 g/rat/day | Urine volume ([2]; Day 7): 74.6±6.4 ml/rat/day | Body weight ([2]; Day 14): 318.3±6.8 g/rat | Drinking water intake ([2]; Day 14): 106.9±18.0 ml/rat/day | Feed intake ([2]; Day 14): 32.6±2.9 g/rat | Urinary sugar excretion ([2]; Day 14): 5.78±1.09 g/rat/day | Urine volume ([2]; Day 14): 79.7±12.5 ml/rat/day | drinking water intake as compared with the diabetes control group ([2]; day 7): 41.4% | feed intake decrease as compared with the diabetes control group ([2]; day 7): 14.3% | drinking water intake as compared with the diabetes control group ([2]; day 14): 43.6% | feed intake decrease as compared with the diabetes control group ([2]; day 14): 23.3%

COc1c(C=O)c(C)c(Cl)c(O)c1C/C=C(\C)CC/C=C(\C)C1CC(=O)C(C)(C)O1 (centres unmarked) [Compound 7, 2-O-methyl AF]
Activation of receptors PPARγ (PPARγ): +++ (Activation peak appears at 10^-6-10^-5M.)

COc1c(Cl)c(C)c(C=O)c(O)c1C/C=C(C)/C=C/[C@@]1(C)[C@H](C)CCC(=O)[C@@H]1C [Compound 17, 4-O-MeAS]
Urinary sugar excretion level as compared with the control period ([3]; 24 hours after administration is stopped, 0.1% in diet): ≤ 50% | Urine volume [3, 10]: sharply decrease | urinary sugar excretion level [3, 10]: sharply decrease | urinary sugar level [3, 10]: sharply decrease

COc1c(C=O)c(C)c(Cl)c(O)c1C/C=C(C)/C=C/C1(C)C(C)CCC(=O)C1C (centres unmarked) [Compound 21, 2-O-methylascochlorin]
Activation of receptors PPARγ (PPARγ): ++ (Activation peak appears at 10^-5-10^-4M.)

CC(/C=C/C1(C)C(C)CCC(=O)C1C)=C\Cc1c(O)c(C=O)c(C)c(Cl)c1OCC(=O)O (centres unmarked) [Compound 25]
blood glucose loss (db/db mice; day 7): over 30% | urinary sugar (db/db mice; day following the start of administration): decreased to a half | blood glucose (db/db mice; from day 3 of administration): significantly decreased | urinary sugar excretion level loss (db/db mice; on and after day 3): over 90% | Activation of receptors PPARγ (PPARγ): +++ (Activation peak appears at 10^-6-10^-5M.) | incidence of type I diabetes at week 24 (NOD mice; [9]): 10%

CC(/C=C/C1(C)C(C)CCC(=O)C1C)=C\Cc1c(O)c(C=O)c(C)c(Cl)c1OC(=O)c1cccnc1 (centres unmarked) [Compound 26]
Activation of receptors PPARγ (PPARγ): ++ (Activation peak appears at 10^-5-10^-4M.)

COc1c(C=O)c(C)c(Cl)c(OCC(=O)O)c1C/C=C(C)/C=C/C1(C)C(C)CCC(=O)C1C (centres unmarked) [Compound 27, 4-O-Carboxymethyl-2-O-methylascochlorin]
binding to immobilized PPARγ receptor (SPR signal) [4]: clearly generates a signal | Activation of receptors PPARγ (PPARγ): ++ (Activation peak appears at 10^-5-10^-4M.)

CC(/C=C/C1(C)C(C)CCC(=O)C1C)=C\Cc1c(O)c(C=O)c(C)c(Cl)c1OC(=O)CCCC(=O)O (centres unmarked) [Compound 29, 4-O-(4-Carboxybutanoyl)ascochlorin]
Activation of receptors PPARγ (PPARγ): +++ (Activation peak appears at 10^-6-10^-5M.)

C/C(=C\Cc1c(O)c(Cl)c(C)c(C=O)c1O)CC/C=C(\C)C1=CC(=O)C(C)(C)O1 [Dehydroascofuranone]
Activation of receptors PPARα (PPARα): ++ (Activation peak appears at 10^-5-10^-4M.)
